By IC50 is commonly meant the point on the concentration scale where inhibition reaches its midpoint. Read a low IC50 as greater potency in that assay.

hMAT2A, sequence (P31153 whole entry): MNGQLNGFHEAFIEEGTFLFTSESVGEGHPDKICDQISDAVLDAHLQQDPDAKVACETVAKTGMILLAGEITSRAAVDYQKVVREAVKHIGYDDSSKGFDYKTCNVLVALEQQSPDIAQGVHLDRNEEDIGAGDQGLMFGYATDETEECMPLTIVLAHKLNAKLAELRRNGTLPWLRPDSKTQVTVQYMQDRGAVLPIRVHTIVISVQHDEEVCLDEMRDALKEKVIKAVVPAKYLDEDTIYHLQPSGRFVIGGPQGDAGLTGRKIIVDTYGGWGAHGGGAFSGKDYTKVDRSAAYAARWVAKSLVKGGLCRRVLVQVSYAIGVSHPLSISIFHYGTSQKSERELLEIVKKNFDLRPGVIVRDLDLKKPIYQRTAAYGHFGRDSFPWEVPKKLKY

For the first assay, the target named is hMAT2A (Homo sapiens (Human), UniProt P31153). Put plainly: Phosphate Sensor Fluorescence Assay (MAT2A enzyme inhibition). It is filed as biochemical. The following applies: L-methionine 500 uM, ATP 500 uM, class symbols. A digest of the protocol:
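Recombinant MAT2A preincubated 15 min at room temperature with compound, then reacted 1 h at room temperature with 500 uM L-methionine and 500 uM ATP in Tris pH 7.5 buffer containing PNP/7-MEG.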
Take `O=c1nc(NCC2CCO2)c2ccc(C(F)(F)F)nc2n1-c1ccccc1Cl` (centres unmarked) [Example 271, 1-(2-chlorophenyl)-4-[(oxetan-2-ylmethyl)amino]-7-(trifluoromethyl)-pyrido[2,3-d]pyrimidin-2(1H)-one]: the IC50 was < 200 nM.

As to `[2H]C([2H])([2H])Nc1nc(=O)n(-c2ccccc2C)c2nc(C(F)(F)F)ccc12` [Example 272, 4-((methyl-d3)amino)-1-(2-methyl-phenyl)-7-(trifluoromethyl)pyrido[2,3-d]pyrimidin-2(1H)-one], the half-inhibitory concentration (IC50) is < 200 nM.

Regarding `O=c1nc(NC2COC2)c2ccc(C(F)(F)F)nc2n1-c1ccccc1Cl` [Example 274, 1-(2-chlorophenyl)-4-(oxetan-3-yl-amino)-7-(trifluoromethyl)pyrido[2,3-d]pyrimidin-2(1H)-one], the 50% inhibitory concentration (IC50) was < 200 nM.

`O=c1nc(N[C@H]2C[C@](O)(C(F)(F)F)C2)c2ccc(C(F)(F)F)nc2n1-c1ccccc1Cl` [Example 275, 4-{[(cis)-3-hydroxy-3-(trifluoromethyl)-cyclobutyl]amino}-1-(2-chlorophenyl)-7-(trifluoromethyl)pyrido[2,3-d]-pyrimidin-2(1H)-one] had an IC50 of 500 to 1000 nM.

`N#CC1(Nc2nc(=O)n(-c3ccccc3Cl)c3nc(C(F)(F)F)ccc23)CCC1` [Example 277, 1-((1-(2-chlorophenyl)-2-oxo-7-(trifluoromethyl)-1,2-dihydropyrido[2,3-d]pyrimidin-4-yl)amino)cyclobutane-1-carbonitrile]: the 50% inhibitory concentration (IC50) is < 200 nM.

Consider `N#CCCNc1nc(=O)n(-c2ccccc2Cl)c2nc(C(F)(F)F)ccc12` [Example 278, 3-((1-(2-chlorophenyl)-2-oxo-7-(trifluoro-methyl)-1,2-dihydropyrido-[2,3-d]pyrimidin-4-yl)amino)-propanenitrile], for which the concentration for half-maximal inhibition (IC50) was < 200 nM.

Take `O=c1nc(N2CC[C@@H](O)C2)c2ccc(Cl)cc2n1-c1ccc2[nH]ncc2c1` [Example 279, (R)-7-chloro-4-(3-hydroxypyrrolidin-1-yl)-1-(1H-indazol-5-yl)quinazolin-2(1H)-one]: the IC50 is < 200 nM.

Consider `CN(C)c1nc(=O)n(-c2ccc3[nH]ncc3c2)c2cc(Cl)ccc12` [Example 280, 7-chloro-4-(dimethylamino)-1-(1H-indazol-5-yl)quinazolin-2(1H)-one], for which the half-maximal inhibitory concentration (IC50) was < 200 nM.

Regarding `O=c1nc(N2CC[C@@H](O)C2)c2ccc(Cl)cc2n1-c1ccc2[nH]cnc2c1` [Example 281, (R)-7-chloro-4-(3-hydroxypyrrolidin-1-yl)-1-(1H-benzimidazol-5-yl)quinazolin-2(1H)-one], the concentration for half-maximal inhibition (IC50) is < 200 nM.

In the case of `Cc1ncccc1-n1c(=O)nc(NCC(F)F)c2ccc(C(F)(F)F)cc21` [Example 282, 4-((2,2-difluoroethyl)amino)-1-(2-methylpyridin-3-yl)-7-(trifluoromethyl)-quinazolin-2(1H)-one], the IC50 is < 200 nM.

In the case of `Cc1ncccc1-n1c(=O)nc(N2CC[C@@H](O)C2)c2ccc(C(F)(F)F)cc21` [Example 283], the IC50 was < 200 nM.

Consider `CNc1nc(=O)n(-c2cccnc2C)c2cc(C(F)(F)F)ccc12` [Example 284], for which the IC50 was < 200 nM.

On to `Cc1ncccc1-n1c(=O)nc(N)c2ccc(C(F)(F)F)cc21` [Example 285], for which the IC50 is < 200 nM.

`O=c1nc(N2CCOCC2)c2ccc(C(F)(F)F)nc2n1-c1ccccc1Cl` [Example 286, 1-(2-chlorophenyl)-4-morpholin-4-yl-7-(trifluoromethyl)pyrido[2,3-d]pyrimidin-2(1H)-one]: the IC50 was < 200 nM.

`NC(=O)CNc1nc(=O)n(-c2ccccc2Cl)c2nc(C(F)(F)F)ccc12` [Example 287, 2-((1-(2-chlorophenyl)-2-oxo-7-(trifluoromethyl)-1,2-dihydropyrido[2,3-d]pyrimidin-4-yl)amino)acetamide]: the IC50 was < 200 nM.

Take `C[C@H](O)CNc1nc(=O)n(-c2ccccc2Cl)c2nc(C(F)(F)F)ccc12` [Example 293, 4-[((2S)-2-hydroxypropyl)amino]-1-(2-chlorophenyl)-7-(trifluoromethyl)-pyrido[2,3-d]pyrimidin-2(1H)-one]: the IC50 is < 200 nM.

Regarding `C[C@@H](O)CNc1nc(=O)n(-c2ccccc2Cl)c2nc(C(F)(F)F)ccc12` [Example 294, 4-[((2R)-2-hydroxypropyl)amino]-1-(2-chlorophenyl)-7-(trifluoromethyl)-pyrido[2,3-d]pyrimidin-2(1H)-one], the concentration for half-maximal inhibition (IC50) was < 200 nM.

Consider `O=c1nc(NCC2(O)CC2)c2ccc(C(F)(F)F)nc2n1-c1ccccc1Cl` [Example 295, 1-(2-chlorophenyl)-4-{[(hydroxycyclo-propyl)methyl]amino}-7-(trifluoro-methyl)-pyrido[2,3-d]pyrimidin-2(1H)-one], for which the concentration for half-maximal inhibition (IC50) is < 200 nM.

Take `O=c1nc(NCCO)c2ccc(C(F)(F)F)nc2n1-c1ccccc1Cl` [Example 296, 1-(2-chlorophenyl)-4-[(2-hydroxy-Iethyl)amino]-7-(trifluoromethyl) pyrido[2,3-d]pyrimidin-2(1H)-one]: the concentration for half-maximal inhibition (IC50) is < 200 nM.

On to `O=c1nc(NC23CC(O)(C2)C3)c2ccc(C(F)(F)F)nc2n1-c1ccccc1Cl` [Example 297, 1-(2-chlorophenyl)-4-[(3-hydroxy-bicyclo[1.1.1]pentyl)amino]-7-(trifluoro-methyl)-pyrido[2,3-d]pyrimidin-2(1H)-one], for which the 50% inhibitory concentration (IC50) was < 200 nM.

With `O=c1nc(N[C@H]2C[C@@](O)(C(F)(F)F)C2)c2ccc(C(F)(F)F)nc2n1-c1ccccc1Cl` [Example 299], the IC50 was 200 to 500 nM.

In the case of `C[C@]1(O)C[C@H](Nc2nc(=O)n(-c3ccccc3Cl)c3nc(C(F)(F)F)ccc23)C1` [Example 300, 4-[((trans)-3-hydroxy-3-methylcyclo-butyl)amino]-1-(2-chlorophenyl)-7-(trifluoromethyl)pyrido[2,3-d]pyrimidin-2(1H)-one], the IC50 is < 200 nM.

In the case of `CO[C@H]1C[C@H](Nc2nc(=O)n(-c3ccccc3Cl)c3nc(C(F)(F)F)ccc23)C1` [Example 301], the half-maximal inhibitory concentration (IC50) is < 200 nM.

Take `CNc1nc(=O)n(-c2ccccc2Cl)c2cc(C(F)(F)F)c(Br)cc12` [Example 302, 6-bromo-1-(2-chlorophenyl)-4-(methylamino)-7-(trifluoromethyl)-quinazolin-2(1H)-one]: the IC50 is < 200 nM.

With `CNc1nc(=O)n(-c2ccccc2)c2cc(C(F)(F)F)c(Br)cc12` [Example 303, 6-bromo-4-(methylamino)-1-phenyl-7-(trifluoromethyl)quinazolin-2(1H)-one], the IC50 is < 200 nM.

As for `CNc1nc(=O)n(-c2ccccc2Cl)c2cc(C(F)(F)F)c(F)cc12` [Example 304, 1-(2-chlorophenyl)-6-fluoro-4-(methyl-amino)-7-(trifluoromethyl)hydro-quinazolin-2-one], the IC50 is < 200 nM.

Turning to `CN(C)c1nc(=O)n(-c2ccc3[nH]cnc3c2)c2cc(Cl)ccc12` [Example 306, 1-benzimidazol-5-yl-4-(dimethylamino)-7-chlorohydroquinazolin-2-one], the IC50 is < 200 nM.

Turning to `CNc1nc(=O)n(-c2ccc3[nH]cnc3c2)c2cc(Cl)ccc12` [Example 307, 1-benzimidazol-5-yl-7-chloro-4-(methyl-amino)hydroquinazolin-2-one], the 50% inhibitory concentration (IC50) was < 200 nM.

Consider `O=c1nc(NC2CC2)c2ccc(C(F)(F)F)nc2n1-c1ccccc1Cl` [Example 308, 1-(2-chlorophenyl)-4-(cyclopropyl-amino)-7-(trifluoromethyl)pyrido[2,3-d]pyrimidin-2(1H)-one], for which the half-inhibitory concentration (IC50) was < 200 nM.

In the case of `CNc1nc(=O)n(-c2ncccn2)c2cc(C3CC3)ccc12` [Example 309, 7-cyclopropyl-4-(methylamino)-1-pyrimidin-2-ylhydroquinazolin-2-one], the IC50 was in the range of 1000 to 10000 nM.

With `CNc1nc(=O)n(-c2ccc(F)c(O)c2)c2cc(Cl)ccc12` [Example 310, 7-chloro-1-(4-fluoro-3-hydroxyphenyl)-4-(methylamino)hydroquinazolin-2-one], the IC50 was < 200 nM.

With `CNc1nc(=O)n(-c2ccncc2Cl)c2nc(C(F)(F)F)ccc12` [Example 312], the IC50 is < 200 nM.

For `CNc1nc(=O)n(-c2ccncc2)c2nc(C(F)(F)F)ccc12` [Example 313], the IC50 fell in the range of 500 to 1000 nM.

Take `CNc1nc(=O)n(-c2ccc(C)nc2)c2nc(C(F)(F)F)ccc12` [Example 314]: the IC50 is < 200 nM.

Turning to `O=c1nc(N2CC(F)C2)c2ccc(C(F)(F)F)nc2n1-c1ccccc1Cl` [Example 315, 1-(2-chlorophenyl)-4-(3-fluoroazetidin-1-yl)-7-(trifluoromethyl)pyrido[2,3-d]pyrimidin-2(1H)-one], the half-inhibitory concentration (IC50) was < 200 nM.

The assay is the same for the next values; noted with them: L-methionine 500 uM, ATP 500 uM, numeric bound.
Regarding `O=c1[nH]c(=O)n(-c2ccccc2Cl)c2nc(C(F)(F)F)ccc12` [Example 288, 1-(2-chlorophenyl)-4-hydroxy-7-(trifluoromethyl)hydropyridino[2,3-d]-pyrimidin-2-one], the IC50 was > 10000 nM.

As to `O=c1nc(O)c2c(C3=CCNC3)cc(Cl)cc2n1-c1ccccc1` [Example 289, 7-chloro-5-(2,5-dihydro-1H-pyrrol-3-yl)-4-hydroxy-1-phenylquinazolin-2(1H)-one], the half-inhibitory concentration (IC50) was > 10000 nM.

With `CC(C)(C)OC(=O)N1CC=C(c2cc(Cl)cc3c2c(O)nc(=O)n3-c2ccccc2)C1` [Example 290, tert-butyl 3-(7-chloro-4-hydroxy-2-oxo-1-phenyl-1,2-dihydroquinazolin-5-yl)-2,5-dihydro-1H-pyrrole-1-carboxylate], the IC50 is > 10000 nM.

Turning to `O=c1nc(O)c2c(-c3ccncc3)cc(Cl)cc2n1-c1ccccc1` [Example 291, 7-chloro-4-hydroxy-1-phenyl-5-(pyridin-4-yl)quinazolin-2(1H)-one], the 50% inhibitory concentration (IC50) is > 10000 nM.

Consider `O=c1[nH]c(=O)n(-c2cccc3nc[nH]c23)c2cc(Cl)ccc12` [Example 305, 1-benzimidazol-7-yl-7-chloro-1,3-dihydroquinazoline-2,4-dione], for which the IC50 was > 10000 nM.

`COc1ccc(F)c(-n2c(=O)[nH]c(=O)c3ccc(Cl)cc32)c1` [Example 311, 7-chloro-1-(2-fluoro-5-methoxyphenyl)-quinazoline-2,4(1H,3H)-dione]: the half-inhibitory concentration (IC50) was > 10000 nM.

(Values after patent publication US11046691B1 (IDEAYA BIOSCIENCES, INC., priority 2018, dated 2021).)
